Assay results as given in patent publication US8182794B2, “Sunless tanning products and processes” (Concept Laboratories, priority 2003, dated 2012).
Entries after “also recorded” stand apart in the source; their conditions may differ.

These compounds were tested on human skin (assay: Colorimeter (Minolta CR-10) L* a* b* readings of sunless tan on forearm skin). Details: 5% additive with 5% DHA and 5% MSM; Table 1 series.
Assay type: in vivo
Description: An equal amount of each formula solution (approximately 150 mg.) from Table 1 was applied to 2″×2″ adjacent sections of forearm, allowed to dry and covered with clothing for the duration of the testing. The application areas were visibly the same color prior to treatment with the solutions and this was confirmed via calorimeter readings. Readings were typically made 24-48 hours post application of the test solutions. Three calorimeter readings were made of each treatment area with a Minolta CR-10 adapted for human skin readings and the readings were averaged. All eight formulas shown in Table 1 were evaluated on several individuals with Fitzpatrick skin types I-III. Although the absolute values for the tanning responses differed between individuals, the relative differences between formulations in terms of tanning response were the same. Typical results of the testing of one subject were recorded in average L* a* b* color values and are shown in Table 2 along with baseline skin color. […]
The results shown in Table 12 were confirmed by several repeat experiments conducted on several relatively light-skin individuals (Fitzpatrick Type I-III). The data are based on calculation of the average increase in skin darkening based on skin color changes measured by the colorimeter “L” or light-dark value [(Δ L)]; the average increase in skin hue intensity measured simultaneously by both the colorimeter “a*” or red value and the colorimeter “b*” or yellow value (Δ√a^2+b^2); and, the average increase in total tan which adds the changes in darkness and hue increases [(Δ L)+Δ√a^2+b^2].

**Q.** How did the “effect of additive on tanning response of DHA and MSM” value (“effect of additive” for short) turn out when OCCCCO [butylene glycol] was run?
**A.** The value was “darker tanning responses; also recorded: significantly increase”.

**Q.** Which “effect of additive” value does the source give for CCCC(O)CO (stereo not drawn) [pentylene glycol, 1,2-pentanediol] here?
**A.** Its value is “darker tanning responses; also recorded: significantly increase”.

**Q.** For CC(O)CO (stereo not drawn) [propylene glycol], which “effect of additive” value is on record?
**A.** The value was “darker tanning responses”.
